Measured values published in PubChem BioAssay AID248 (DTP/NCI, 2004).
Where “and” joins values, the source holds several entries; their conditions need not be identical. Identical values can stand only once. Inconclusive results and toxic doses are left out. Rule as the data show it: active = T/C of 150% or more; inactive = T/C below 125%.

Test system: L1210 leukemia ip in BDF1 mice, survival T/C
Assay: NCI In Vivo Anticancer Drug Screen. Data for tumor model L1210 Leukemia (intraperitoneal) in B6D2F1 (BDF1) mice
Conditions: endpoint: mean survival time, higher = longer survival
Outline: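 Value reflects the ratio of survival in compound-treated mice to survival in vehicle-treated controls, with both groups carrying the same transplanted tumor.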

[1] = dose: 100.0 mg/kg/injection, schedule: Q01DX009 (ip), vehicle: Klucel (hydroxypropylcellulose) (HPC)
[2] = dose: 200.0 mg/kg/injection, schedule: Q01DX009 (ip), vehicle: Klucel (hydroxypropylcellulose) (HPC)
[3] = dose: 400.0 mg/kg/injection, schedule: Q01DX009 (ip), vehicle: Klucel (hydroxypropylcellulose) (HPC)
[4] = dose: 100.0 mg/kg/injection, schedule: Q01DX009 (ip), vehicle: saline with Tween-80
[5] = dose: 100.0 mg/kg/injection, schedule: Q04DX003 (ip), vehicle: saline with Tween-80
[6] = dose: 200.0 mg/kg/injection, schedule: Q01DX009 (ip), vehicle: saline with Tween-80
[7] = dose: 200.0 mg/kg/injection, schedule: Q04DX003 (ip), vehicle: saline with Tween-80
[8] = dose: 400.0 mg/kg/injection, schedule: Q01DX009 (ip), vehicle: saline with Tween-80
[9] = dose: 400.0 mg/kg/injection, schedule: Q04DX003 (ip), vehicle: saline with Tween-80
[10] = dose: 100.0 mg/kg/injection, schedule: Q01DX001 (ip), vehicle: carboxymethylcellulose (CMC)
[11] = dose: 200.0 mg/kg/injection, schedule: Q01DX001 (ip), vehicle: carboxymethylcellulose (CMC)
[12] = dose: 400.0 mg/kg/injection, schedule: Q01DX001 (ip), vehicle: carboxymethylcellulose (CMC)
[13] = dose: 100.0 mg/kg/injection, schedule: Q04DX003 (ip), vehicle: Klucel (hydroxypropylcellulose) (HPC)
[14] = dose: 200.0 mg/kg/injection, schedule: Q04DX003 (ip), vehicle: Klucel (hydroxypropylcellulose) (HPC)
[15] = dose: 400.0 mg/kg/injection, schedule: Q04DX003 (ip), vehicle: Klucel (hydroxypropylcellulose) (HPC)
[16] = dose: 100.0 mg/kg/injection, schedule: Q01DX009 (ip), vehicle: saline
[17] = dose: 200.0 mg/kg/injection, schedule: Q01DX009 (ip), vehicle: saline
[18] = dose: 400.0 mg/kg/injection, schedule: Q01DX009 (ip), vehicle: saline
[19] = dose: 100.0 mg/kg/injection, schedule: Q01DX001 (ip), vehicle: Klucel (hydroxypropylcellulose) (HPC)
[20] = dose: 200.0 mg/kg/injection, schedule: Q01DX001 (ip), vehicle: Klucel (hydroxypropylcellulose) (HPC)
[21] = dose: 400.0 mg/kg/injection, schedule: Q01DX001 (ip), vehicle: Klucel (hydroxypropylcellulose) (HPC)
[22] = dose: 25.0 mg/kg/injection, schedule: Q01DX009 (ip), vehicle: Klucel (hydroxypropylcellulose) (HPC)
[23] = dose: 50.0 mg/kg/injection, schedule: Q01DX009 (ip), vehicle: Klucel (hydroxypropylcellulose) (HPC)

Measured: T/C

COc1c(NC(=O)Nc2ccc(F)c([N+](=O)[O-])c2)cccc1[N+](=O)[O-]
inactive: [1] 93 % of control | [2] 101 % of control | [3] 97 % of control

O=C(CCCl)NC1CC1c1ccccc1 (stereo not given)
inactive: [4] 90 % of control | [5] 97 % of control | [6] 95 % of control | [7] 97 % of control | [8] 94 % of control | [9] 95 % of control

C=CCN(c1ccccc1)P(=O)(N1CC1)N1CC1
inactive: [10] 96 % of control | [11] 96 % of control | [12] 96 % of control

O=C(CCN1CCCC1)c1ccc2ccccc2c1
inactive: dose: 25.0 mg/kg/injection, schedule: Q04DX002 (ip), vehicle: saline with Tween-80 97 % of control | dose: 50.0 mg/kg/injection, schedule: Q04DX002 (ip), vehicle: saline with Tween-80 97 % of control | dose: 100.0 mg/kg/injection, schedule: Q04DX002 (ip), vehicle: saline with Tween-80 100 % of control and 86 % of control

CCCCCCCCNNC(=O)c1ccccc1
inactive: [10] 95 % of control | [11] 97 % of control | [12] 92 % of control

O=C(O)CCCc1ccc2sc3ccccc3c2c1
inactive: dose: 100.0 mg/kg/injection, schedule: Q01DX001 (ip), vehicle: saline with Tween-80 100 % of control | dose: 200.0 mg/kg/injection, schedule: Q01DX001 (ip), vehicle: saline with Tween-80 101 % of control

CCCN(CCC)N=Nc1ccccc1-c1nc(N)nc(N)n1
inactive: [13] 101 % of control | [14] 119 % of control | [15] 109 % of control

O=C1C2C(C(=O)N1c1ccccc1)N2CCO (stereo not given)
inactive: [1] 107 % of control | [13] 113 % of control | [2] 103 % of control | [14] 108 % of control | [3] 97 % of control | [15] 113 % of control

CN=C(N)N
inactive: [5] 102 % of control | [7] 101 % of control | [9] 103 % of control

COC(=O)c1c(C)ccc2c(O)c3c(cc12)C(=O)c1c2c(cc(O)c1C3=O)C1(C)OC(C)(O2)C(O)C(N(C)C)C1O (stereo not given)
inactive: dose: 25.0 mg/kg/injection, schedule: Q01DX009 (ip), vehicle: saline 96 % of control | dose: 50.0 mg/kg/injection, schedule: Q01DX009 (ip), vehicle: saline 96 % of control | [16] 104 % of control | [17] 98 % of control | [18] 102 % of control

CCOC=Nc1c(N)ncnc1Cl
inactive: dose: 125.0 mg/kg/injection, schedule: Q01DX Z (ip), vehicle: other 93 % of control | dose: 250.0 mg/kg/injection, schedule: Q01DX Z (ip), vehicle: other 93 % of control | dose: 500.0 mg/kg/injection, schedule: Q01DX Z (ip), vehicle: other 103 % of control

OC1(c2ccccc2)CC2CCCCC2c2ccccc21 (stereo not given)
inactive: dose: 12.0 mg/kg/injection, schedule: Q01DX001 (ip), vehicle: saline 98 % of control | dose: 25.0 mg/kg/injection, schedule: Q01DX001 (ip), vehicle: saline 100 % of control | dose: 50.0 mg/kg/injection, schedule: Q01DX001 (ip), vehicle: saline 102 % of control

CCCCCCCCCCCCCCCCCCN1CCS(=O)CC1
inactive: [19] 98 % of control | [20] 100 % of control | [21] 102 % of control

Cn1c(=O)c2c(ncn2CCSc2nnnc3ccccc23)n(C)c1=O
inactive: dose: 100.0 mg/kg/injection, schedule: Q04DX003 (ip), vehicle: saline 98 % of control | dose: 200.0 mg/kg/injection, schedule: Q04DX003 (ip), vehicle: saline 93 % of control | dose: 400.0 mg/kg/injection, schedule: Q04DX003 (ip), vehicle: saline 94 % of control

Cc1ccc(C)c(NC(=O)c2ccc([N+](=O)[O-])cc2)c1
inactive: dose: 100.0 mg/kg/injection, schedule: Q04DX002 (ip), vehicle: Klucel (hydroxypropylcellulose) (HPC) 100 % of control | dose: 200.0 mg/kg/injection, schedule: Q04DX002 (ip), vehicle: Klucel (hydroxypropylcellulose) (HPC) 89 % of control | dose: 400.0 mg/kg/injection, schedule: Q04DX002 (ip), vehicle: Klucel (hydroxypropylcellulose) (HPC) 92 % of control

Cc1ccc(C(=O)c2ccc3c4c(cccc24)CC3)cc1
inactive: [13] 112 % of control | [14] 88 % of control | [15] 100 % of control

CCCCCCCCCCCCCCCCCC(=O)CCCCCCCCCCCCCCCCC
inactive: [19] 88 % of control | [20] 96 % of control | [21] 91 % of control

COc1ccc(NC(=O)Nc2cc(Cl)ccc2OC)cc1
inactive: dose: 12.5 mg/kg/injection, schedule: Q01DX009 (ip), vehicle: Klucel (hydroxypropylcellulose) (HPC) 90 % of control | [22] 93 % of control | [23] 93 % of control | [13] 99 % of control | [14] 92 % of control | [15] 90 % of control

C/C=C(/C(=O)c1ccc(-c2ccccc2)cc1)c1ccccc1
inactive: [4] 105 % of control | [5] 95 % of control | [6] 94 % of control | [7] 89 % of control | [8] 90 % of control | [9] 94 % of control

O=S(=O)(/C=C/c1ccc(Cl)cc1)c1ccccc1
inactive: dose: 100.0 mg/kg/injection, schedule: Q01DX001 (ip), vehicle: saline 102 % of control | [16] 91 % of control | dose: 200.0 mg/kg/injection, schedule: Q01DX001 (ip), vehicle: saline 104 % of control | [17] 96 % of control | dose: 400.0 mg/kg/injection, schedule: Q01DX001 (ip), vehicle: saline 102 % of control | [18] 94 % of control

COc1ccccc1OCC(O)COC(N)=O (stereo not given)
inactive: [22] 100 % of control | [23] 103 % of control | [1] 106 % of control | [2] 103 % of control | [3] 106 % of control

Nc1cc(NC(c2ccccc2)c2ccccc2)c(N)c(N)n1
inactive: dose: 100.0 mg/kg/injection, schedule: Q01DX001 (ip), vehicle: gum acacia 88 % of control | dose: 200.0 mg/kg/injection, schedule: Q01DX001 (ip), vehicle: gum acacia 90 % of control | dose: 400.0 mg/kg/injection, schedule: Q01DX001 (ip), vehicle: gum acacia 92 % of control

O=C(O)c1ccc(CBr)cc1CBr
inactive: dose: 6.25 mg/kg/injection, schedule: Q01DX009 (ip), vehicle: saline with Tween-80 103 % of control | dose: 6.25 mg/kg/injection, schedule: Q04DX003 (ip), vehicle: saline with Tween-80 93 % of control | dose: 12.5 mg/kg/injection, schedule: Q01DX009 (ip), vehicle: saline with Tween-80 101 % of control | dose: 12.5 mg/kg/injection, schedule: Q04DX003 (ip), vehicle: saline with Tween-80 96 % of control | dose: 25.0 mg/kg/injection, schedule: Q01DX009 (ip), vehicle: saline with Tween-80 94 % of control | dose: 25.0 mg/kg/injection, schedule: Q04DX003 (ip), vehicle: saline with Tween-80 102 % of control
